Measurements reported in BindingDB's records for doi:10.1016/j.bioorg.2017.01.003 (Comsats Institute of Information Technology, 2017).

Tests used:
5'-nucleotidase [1] = target: 5'-nucleotidase (Homo sapiens, UniProt P21589); experiment: Ecto-5'-Nucleotidase Inhibition Assay; conditions: pH 7.4; 37 °C
Experimental: (§1) Then the mixture was placed in water bath at 99 °C for 20 min to stop the enzymatic reaction by thermal denaturation of protein. The aliquots of 50 μL of this reaction mixture were transferred into CE mini vials and injected hydrodynamically into the capillary under pressure of 0.5 psi for 5 s, followed by the application of 15 kV voltage for separation of substrate and product peaks.

5'-nucleotidase [2] = target: T1, 5'-nucleotidase (Rattus norvegicus, UniProt P21588); experiment: Ecto-5'-Nucleotidase Inhibition Assay; conditions: pH 7.4; 37 °C
T1 sequence (P21588 whole entry): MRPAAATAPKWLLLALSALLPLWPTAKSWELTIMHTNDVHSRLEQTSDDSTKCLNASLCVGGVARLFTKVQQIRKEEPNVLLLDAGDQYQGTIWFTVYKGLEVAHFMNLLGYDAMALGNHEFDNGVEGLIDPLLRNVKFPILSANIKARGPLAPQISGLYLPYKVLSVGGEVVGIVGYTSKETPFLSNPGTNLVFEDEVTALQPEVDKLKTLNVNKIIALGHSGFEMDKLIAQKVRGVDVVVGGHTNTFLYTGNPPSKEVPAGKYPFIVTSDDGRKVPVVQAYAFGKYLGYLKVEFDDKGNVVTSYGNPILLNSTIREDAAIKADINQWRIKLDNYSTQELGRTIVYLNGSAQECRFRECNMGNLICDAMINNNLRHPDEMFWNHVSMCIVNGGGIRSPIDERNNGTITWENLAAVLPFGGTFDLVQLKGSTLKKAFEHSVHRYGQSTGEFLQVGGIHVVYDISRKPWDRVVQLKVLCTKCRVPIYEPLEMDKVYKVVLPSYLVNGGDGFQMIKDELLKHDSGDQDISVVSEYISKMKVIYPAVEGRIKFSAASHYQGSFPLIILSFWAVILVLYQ
Experimental: as §1

[3] = target: Intestinal-type alkaline phosphatase (Bos taurus, UniProt P19111); experiment: Alkaline Phosphatase Assay; conditions: pH 9.8; 37 °C
Chain of Intestinal-type alkaline phosphatase (P19111 whole entry): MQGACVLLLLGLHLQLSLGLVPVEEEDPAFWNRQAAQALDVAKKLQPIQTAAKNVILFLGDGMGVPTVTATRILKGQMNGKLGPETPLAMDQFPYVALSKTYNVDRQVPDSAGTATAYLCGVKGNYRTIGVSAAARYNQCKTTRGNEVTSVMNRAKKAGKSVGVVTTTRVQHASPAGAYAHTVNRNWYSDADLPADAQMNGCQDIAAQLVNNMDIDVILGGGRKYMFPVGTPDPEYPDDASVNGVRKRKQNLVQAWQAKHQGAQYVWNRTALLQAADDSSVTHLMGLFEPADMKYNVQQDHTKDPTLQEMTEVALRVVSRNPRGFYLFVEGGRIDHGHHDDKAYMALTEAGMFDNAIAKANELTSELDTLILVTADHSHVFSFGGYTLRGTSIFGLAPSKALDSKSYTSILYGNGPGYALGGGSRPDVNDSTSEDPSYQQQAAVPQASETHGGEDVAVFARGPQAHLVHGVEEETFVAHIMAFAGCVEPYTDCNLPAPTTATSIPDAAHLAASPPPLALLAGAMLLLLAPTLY
Experimental: Alkaline phosphatase assay was optimized and performed in the same way as previously reported method with slight modifications [Sergienko et al., Nat. Protoc., 5:1431-1439]. All compounds were analyzed at a final concentration of 200 μM (1% DMSO) by using assay buffer with composition of […] diethanolamine (DEA) (pH 9.8), 0.05 mM ZnCl2 and 2.5 mM MgCl2. The total reaction volume was kept 50 μL containing 10 μL of tested compound, 20 μL of b-TNAP (1:800 (0.8 units/mL) diluted enzyme in assay buffer) or c-IAP (1:800 (1 units/mL) diluted enzyme in assay buffer). After incubation for 3-5 min at 37 °C., the luminescence was measured as a pre-read using microplate reader (BioTek FLx800, Instruments, Inc. USA). Then, 20 μL of substrate (CDPstar®) (final concentration of 110 μM) was added to the reaction mixture to initiate the enzymatic reaction. The change in the luminescence was recorded after 15 min. at 37 °C. The activity of each compound was measured in comparison with control (without any inhibitor). Levamisole (2 mM per well) and L-phenylalanine (4 mM per well) were used as standards (positive control) against b-TNAP) and c-IAP), respectively.

[4] = Alkaline Phosphatase Assay; conditions: pH 9.8; 37 °C

Chain of 5'-nucleotidase (Homo sapiens, UniProt P21589) (P21589 whole entry): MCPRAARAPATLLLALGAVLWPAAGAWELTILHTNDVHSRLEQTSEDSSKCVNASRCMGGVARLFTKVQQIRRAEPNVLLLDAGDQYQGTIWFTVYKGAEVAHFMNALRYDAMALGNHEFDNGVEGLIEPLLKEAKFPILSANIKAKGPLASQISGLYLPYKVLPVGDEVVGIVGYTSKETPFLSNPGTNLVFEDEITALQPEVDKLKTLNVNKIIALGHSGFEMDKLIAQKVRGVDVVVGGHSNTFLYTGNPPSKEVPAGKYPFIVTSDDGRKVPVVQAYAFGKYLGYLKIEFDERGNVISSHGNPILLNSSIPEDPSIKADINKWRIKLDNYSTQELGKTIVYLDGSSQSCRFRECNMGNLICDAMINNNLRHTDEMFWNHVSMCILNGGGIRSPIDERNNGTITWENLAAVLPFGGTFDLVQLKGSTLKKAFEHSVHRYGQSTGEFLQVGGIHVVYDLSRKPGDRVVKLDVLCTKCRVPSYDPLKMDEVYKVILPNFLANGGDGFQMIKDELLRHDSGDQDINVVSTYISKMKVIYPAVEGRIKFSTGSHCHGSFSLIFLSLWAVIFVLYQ

Row | Compound | IC50 [3] [nM] | IC50 [4] [nM] | IC50 (5'-nucleotidase [1]) [nM] | IC50 (5'-nucleotidase [2]) [nM]
1 | NS(=O)(=O)c1ccc(N/N=C(/C(=O)/C=C/c2ccccc2Cl)N2CCOCC2)cc1 [(Z)-4-(2-((E)-4-(2-chlorophenyl)-1-morpholino-2-oxobut-3-enylidene)hydrazinyl) benzenesulfonamide (4a)] | 120 |  | 11600 | 6430
2 | NS(=O)(=O)c1ccc(N/N=C(/C(=O)/C=C/c2ccc(Cl)cc2Cl)N2CCOCC2)cc1 [(Z)-4-(2-((E)-4-(2,4-dichlorophenyl)-1-morpholino-2-oxobut-3-enylidene)hydrazinyl) benzenesulfonamide (4b)] | 680 |  | 3320 | 2850
3 | NS(=O)(=O)c1ccc(N/N=C(/C(=O)/C=C/c2ccccc2Br)N2CCOCC2)cc1 [(Z)-4-(2-((E)-4-(2-bromophenyl)-1-morpholino-2-oxobut-3-enylidene)hydrazinyl) benzenesulfonamide (4i)] | 1210 |  | 2920 | 22400
4 | NS(=O)(=O)c1ccc(N/N=C(/C(=O)/C=C/c2ccccc2F)N2CCOCC2)cc1 [(Z)-4-(2-((E)-4-(2-fluorophenyl)-1-morpholino-2-oxobut-3-enylidene)hydrazinyl) benzene-sulfonamide (4g)] | 440 |  |  | 
5 | NS(=O)(=O)c1ccc(N/N=C(/C(=O)/C=C/c2cccc([N+](=O)[O-])c2)N2CCOCC2)cc1 [(Z)-4-(2-((E)-1-morpholino-4-(3-Nitrophenyl)-2-oxobut-3-enylidene)hydrazinyl) benzenesulfonamide (4j)] | 740 |  |  | 
6 | COc1cc(/C=C/C(=O)/C(=N/Nc2ccc(S(N)(=O)=O)cc2)N2CCOCC2)cc(OC)c1OC [(Z)-4-(2-((E)-1-morpholino-2-oxo-4-(3,4,5-Trimethoxyphenyl)but-3-enylidene) hydrazinyl)benzenesulfonamide (4f)] | 2570 |  | 1750 | 680

Now from value to compound, other results behind:

Row | IC50 [3] [nM] | IC50 [4] [nM] | Compound | IC50 (5'-nucleotidase [1]) [nM] | IC50 (5'-nucleotidase [2]) [nM]
7 | 730 |  | NS(=O)(=O)c1ccc(N/N=C(/C(=O)/C=C/c2cccc(F)c2)N2CCOCC2)cc1 [(Z)-4-(2-((E)-4-(3-fluorophenyl)-1-morpholino-2-oxobut-3-enylidene)hydrazinyl) benzenesulfonamide (4h)] |  | 
8 | 1710 | 330 | COc1ccc(/C=C/C(=O)/C(=N/Nc2ccc(S(N)(=O)=O)cc2)N2CCOCC2)cc1 [(Z)-4-(2-((E)-4-(4-methoxyphenyl)-1-morpholino-2-oxobut-3-enylidene)hydrazinyl) benzenesulfonamide (4d)] |  | 
9 | 990 |  | COc1cccc(/C=C/C(=O)/C(=N/Nc2ccc(S(N)(=O)=O)cc2)N2CCOCC2)c1 [(Z)-4-(2-((E)-4-(3-methoxyphenyl)-1-morpholino-2-oxobut-3-enylidene)hydrazinyl) benzenesulfonamide (4c)] |  | 
10 | 350 |  | COc1ccc(/C=C/C(=O)/C(=N/Nc2ccc(S(N)(=O)=O)cc2)N2CCOCC2)cc1OC [(Z)-4-(2-((E)-4-(3,4-dimethoxyphenyl)-1-morpholino-2-oxobut-3-enylidene) hydrazinyl) benzenesulfonamide (4e)] |  | 7410
